Measured values published in US9791436B2, “Protease-based biosensor” (priority 2012, dated 2017).

How the values were obtained:
[1] = biological target: T1, Erbin-PDZ-FN affinity clamp complex (Homo sapiens, UniProt Q96RT1); experiment: Induction of the TVMV-based allosteric receptor by PDZ ligands of different affinity; assay type: biochemical; settings: FIG. 11C
T1 construct: made in house; host or cells: E. coli BL21(DE3)-RIL
Protocol: The maximum induction ratio of TVMV-based allosteric receptors (500 nM) was measured in a similar fashion in the presence or absence of the PDZ ligand peptide-1 ([…]) at a final concentration of 10 μM in protease assay buffer consisting of 50 mM Tris-HCl, 1 M NaCl, 1 mM DTT and 0.5 mM EDTA, pH 8.0. The reaction was generally initiated following the addition of TVMV substrate peptide (Table 1) to a final concentration of 10 μM.
A set of different allosterically regulated proteases was constructed by varying the composition of the three different linkers connecting TVMV to the Erbin-PDZ domain (Linker 1), the Erbin-PDZ domain to the FN3 domain (Linker 2) and the FN3 domain to the AI-domain (Linker 3). […] The largest modulation was effected by progressively shortening and lengthening linker L1.

ePDZ-b1 = settings: cited from earlier work
ePDZ-b1, sequence (as listed by the source): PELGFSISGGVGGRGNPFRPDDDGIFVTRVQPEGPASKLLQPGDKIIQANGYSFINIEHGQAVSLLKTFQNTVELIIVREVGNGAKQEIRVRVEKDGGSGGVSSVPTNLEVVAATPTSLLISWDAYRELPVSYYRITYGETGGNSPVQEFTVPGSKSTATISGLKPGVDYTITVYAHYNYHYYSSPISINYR

T1 sequence (Q96RT1 with tags, fused parts or gaps limits assumed): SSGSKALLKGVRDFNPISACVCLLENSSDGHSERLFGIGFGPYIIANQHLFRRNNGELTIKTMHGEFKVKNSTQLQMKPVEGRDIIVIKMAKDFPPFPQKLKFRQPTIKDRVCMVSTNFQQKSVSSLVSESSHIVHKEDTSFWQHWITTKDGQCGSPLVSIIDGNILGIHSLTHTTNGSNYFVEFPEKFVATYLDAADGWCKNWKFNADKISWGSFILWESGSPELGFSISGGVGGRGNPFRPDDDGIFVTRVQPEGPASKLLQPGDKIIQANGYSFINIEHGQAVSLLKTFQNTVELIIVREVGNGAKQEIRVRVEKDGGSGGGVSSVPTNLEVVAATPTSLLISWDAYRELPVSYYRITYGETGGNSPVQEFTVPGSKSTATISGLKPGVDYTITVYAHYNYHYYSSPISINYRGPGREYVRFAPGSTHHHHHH

PQPVDSWV [PDZ-Ligand 2]
induction of activity compared to the higher affinity PDZ peptide ligand-1 [1]: approximately 10 fold lower | Kd (ePDZ-b1): ~5 nM

RGSIDTWV [PDZ-Ligand 1]
Kd (ePDZ-b1): ~0.625 nM
